According to ChEMBL document CHEMBL5634137, “2,4-Diacetylphloroglucinol (DAPG) derivatives rapidly eradicate methicillin-resistant staphylococcus aureus without resistance development by disrupting membrane” (Eur J Med Chem, 2023):
Values after ≈ are worked out from the molar mass of the structure shown.

Legend:
Type in all cases: functional
Staphylococcus aureus [1] = assay: Antibacterial activity against methicillin-resistant Staphylococcus aureus ATCC 3392 assessed as inhibition of bacterial growth incubated for 24 hrs by broth dilution method
Staphylococcus aureus [2] = assay: Antibacterial activity against methicillin-resistant Staphylococcus aureus ATCC 4330 assessed as inhibition of bacterial growth incubated for 24 hrs by broth dilution method
Staphylococcus aureus [3] = assay: Antibacterial activity against Methicillin-resistant Staphylococcus aureus USA300 assessed as inhibition of bacterial growth incubated for 24 hrs by broth dilution method

| SMILES | MIC (Staphylococcus aureus [1]) [µg/mL] | MIC (Staphylococcus aureus [2]) [µg/mL] | MIC (Staphylococcus aureus [3]) [µg/mL] |
| --- | --- | --- | --- |
| CCC(=O)c1c(O)cc(O)c(C(=O)CC)c1O | 8 (≈ 33.6 µM) | 4 (≈ 16.8 µM) | – |
| COc1cc(O)c(C(C)=O)c(OC)c1C(C)=O | > 64 | > 64 | – |
| CCCC(=O)c1c(O)cc(O)cc1O | > 64 | > 64 | – |
| CCC(C)C(=O)c1c(O)cc(O)c(C(=O)C(C)CC)c1O (stereo not drawn) | 4 (≈ 13.6 µM) | 4 (≈ 13.6 µM) | – |
| CCCCC(=O)c1c(O)cc(O)cc1O | > 64 | > 64 | – |
| CC(C)C(=O)c1c(O)cc(O)c(C(=O)C(C)C)c1O | 4 (≈ 15 µM) | 4 (≈ 15 µM) | – |
| O=C(c1c(O)cc(O)cc1O)C1CC1 | 32 (≈ 165 µM) | 16 (≈ 82.4 µM) | – |
| CCCCCCCCC(=O)c1c(O)cc(O)c(C(=O)CCCCCCCC)c1O | 4 (≈ 9.84 µM) | 2 (≈ 4.92 µM) | – |
| CCCCCC(=O)c1c(O)cc(O)cc1O | 32 (≈ 143 µM) | 32 (≈ 143 µM) | – |
| CCCCCCCC(=O)c1c(O)cc(O)cc1O | 8 (≈ 31.7 µM) | 8 (≈ 31.7 µM) | – |
| O=C(c1c(O)cc(O)cc1O)C1CCCC1 | 64 (≈ 288 µM) | 64 (≈ 288 µM) | – |
| CCCCCCCCCCCCCCCC(=O)c1c(O)cc(O)cc1O | > 64 | > 64 | – |
| CCCCC(=O)c1c(O)cc(O)c(C(C)=O)c1O | 8 (≈ 31.7 µM) | 4 (≈ 15.9 µM) | – |
| O=Cc1c(O)cc(O)cc1O [PHLOROGLUCINALDEHYDE] | > 64 | > 64 | – |
| COc1cc(OC)c(C(C)=O)c(O)c1C(C)=O | > 64 | > 64 | – |
| CC1(C)S[C@@H]2[C@H](NC(=O)[C@H](N)c3ccc(O)cc3)C(=O)N2[C@H]1C(=O)O [AMOXICILLIN] | – | – | 128 (≈ 350 µM) |
| CC(C)(C)CC(=O)c1c(O)cc(O)cc1O | > 64 | 64 (≈ 285 µM) | – |
| CCCCCCCCCC(=O)c1c(O)cc(O)c(C(=O)CCCCCCCCC)c1O | 8 (≈ 18.4 µM) | 8 (≈ 18.4 µM) | – |
| O=C(O)c1cn(C2CC2)c2cc(N3CCNCC3)c(F)cc2c1=O [CIPROFLOXACIN] | 0.25 (≈ 0.754 µM) | 0.25 (≈ 0.754 µM) | 0.25 (≈ 0.754 µM) |

| SMILES | MIC (Staphylococcus aureus [1]) [µg/mL] | MIC (Staphylococcus aureus [2]) [µg/mL] | MIC (Staphylococcus aureus [3]) [µg/mL] |
| --- | --- | --- | --- |
| CCCCCCCCCCCCCCCC(=O)c1c(O)cc(O)c(C(=O)CCCCCCCCCCCCCCC)c1O | > 64 | > 64 | – |
| O=C(Cc1ccccc1)c1c(O)cc(O)cc1O | > 64 | 32 (≈ 131 µM) | – |
| CCC(=O)c1c(O)cc(O)cc1O [FLOPROPIONE] | > 64 | > 64 | – |
| CC(C)CCC(=O)c1c(O)cc(O)cc1O | 64 (≈ 285 µM) | 32 (≈ 143 µM) | – |
| O=Cc1c(O)cc(O)c(C=O)c1O | > 64 | > 64 | – |
| CCC(C)C(=O)c1c(O)cc(O)cc1O (stereo not drawn) | > 64 | 32 (≈ 152 µM) | – |
| O=C(c1c(O)cc(O)c(C(=O)C2CC2)c1O)C1CC1 | 8 (≈ 30.5 µM) | 8 (≈ 30.5 µM) | – |
| CCCCCCCCC(=O)c1c(O)cc(O)cc1O | 8 (≈ 30 µM) | 8 (≈ 30 µM) | – |
| CC(=O)c1c(O)cc(O)cc1O [2,4,6-TRIHYDROXYACETOPHENONE] | > 64 | > 64 | – |
| COc1cc(OC)c(C(C)=O)c(OC)c1C(C)=O | > 64 | > 64 | – |
| C[C@H]1c2cccc(O)c2C(=O)C2=C(O)[C@]3(O)C(=O)C(C(N)=O)=C(O)[C@@H](N(C)C)[C@@H]3[C@@H](O)[C@@H]21 [DOXYCYCLINE ANHYDROUS] | – | – | 0.5 (≈ 1.13 µM) |
| COc1cc(O)c(C(C)=O)c(O)c1C(C)=O | > 64 | > 64 | – |
| O=C(c1c(O)cc(O)cc1O)C1CCC1 | 32 (≈ 154 µM) | 32 (≈ 154 µM) | – |
| CCCC(=O)c1c(O)cc(O)c(C(=O)CCC)c1O | 4 (≈ 15 µM) | 4 (≈ 15 µM) | – |
| CC(C)C(=O)c1c(O)cc(O)cc1O [PHLOROISOBUTYROPHENONE] | 64 (≈ 326 µM) | 32 (≈ 163 µM) | – |
| CCCCCCCCCC(=O)c1c(O)cc(O)cc1O | 32 (≈ 114 µM) | 32 (≈ 114 µM) | – |
| O=C(c1c(O)cc(O)cc1O)C1CCCCC1 | > 64 | 64 (≈ 271 µM) | – |
| CCCCCCC(=O)c1c(O)cc(O)cc1O | 16 (≈ 67.1 µM) | 16 (≈ 67.1 µM) | – |
